From PubChem BioAssay AID2060885 (Molecular Pharmacology Branch, DTP, NCI, 2025)

Test system: NCI-H23 complex spheroids with HUVEC/MSC, viability
Test: Anticancer human tumor NCI-H23 cell line growth inhibition [RAS];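 as to viability, T/C: 100% = DMSO vehicle control viability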
Details: for IC50: curve of first compound; for viability, T/C: stronger effect = lower value
Excerpt: RAS pathway inhibitors in Combinations in Complex Spheroids
A high-throughput screen of multi-cell type tumor spheroids was designed to identify active combinations of RAS pathway inhibitors and targeted small molecules. Complex spheroids include a stromal component modeled by human endothelial cells (HUVEC) and fibroblasts modeled by human mesenchymal stem cells (MSCs). The concentration ranges selected for each drug and investigational agent were based upon clinically achievable concentrations if the clinical Cmax of the agent was known.
Compounds. The drugs and investigational agents: abemaciclib (NSC768073), cobimetinib (NSC768068), divarasib (GDC6063, NSC841802), docetaxel (NSC628503), GDC-1971 (RLY-1971, NSC841576), gemcitabine (NSC613327), inavolisib (NSC800729), ipatasertib (NSC767898), KB-0742 (NSC834161), MRTX-1133 (NSC836407), osimertinib (NSC779217), RMC-4630 (NSC839698), RMC-6236 (NSC851965), RMC-6291 (NSC852671), Ro-3306 (NSC812927), sapanisertib (NSC764658), SN-38 (NSC673596), staurosporine (NSC755774), SY5609 (NSC837396), and tovorafenib (DAY101, NSC766906), were obtained from the National Cancer Institute (NCI) Developmental Therapeutics Program Chemical Repository. The FDA-approved anticancer drug set is available from the NCI Developmental Therapeutics Program. […] The stock solutions were prepared in dimethyl sulfoxide (DMSO, Sigma-Aldrich, St. Louis, MO, cat. D2650) at 800-fold the tested concentration and stored at -70 degrees C prior to their use. All drugs and investigational agents were tested over a range starting from a high concentration at or near the clinical Cmax and decreasing in half-log increments. If the clinical Cmax for an agent had not been determined, the highest concentration tested was 10 microM.
Cell Culture. All cells were maintained in an incubator at 37 degrees C and 5% CO2 with 95% humidity. The PDC lines were cultured according to standard operating procedures established by the NCI PDMR. All PDCs were thawed and cultured in Matrigel-coated flasks prepared with a working solution of 1X Ham's F-12 nutrient mix, without supplementation (Invitrogen, Waltham, MA, cat. 11765054), 100 U/mL penicillin-streptomycin (Invitrogen, cat. 15140122), and 2.5% Matrigel (Corning Inc., Corning, NY, cat. 354248) for the first three passages. The 362531-283-R-J2-PDC and 782815-120-R-J1-PDC lines were cultured in 6C/Colon 1B media, which includes advanced DMEM/F-12 (Thermo Fisher Scientific, cat. 12634028), 10 mM HEPES (Thermo Fisher Scientific, cat. 15630080), 1X GlutaMAX supplement (Thermo Fisher Scientific, cat. 35050061), 0.1 mg/mL primocin (InvivoGen, San Diego, CA, cat. ant-pm-2), 10% defined fetal bovine serum, heat inactivated (HyClone Laboratories Inc., Logan, UT, cat. SH30070.03HI), 50% L-WRN conditioned media (ATCC, cat. CRL-3276), 1.25 mM N-Acetyl-L-cysteine (Sigma-Aldrich, cat. A9165), 10 mM nicotinamide (Sigma-Aldrich, cat. N0636), 1X B-27 supplement (Thermo Fisher Scientific, cat. 17504044), 1X N-2 supplement (Thermo Fisher Scientific, cat. 17502048), 50 ng/mL human EGF (Thermo Fisher Scientific, cat. PHG0311), and 10 microM Y-27632 dihydrochloride (Tocris Bioscience, cat. 1254). The K12877-001-R-J1-PDC line was cultured in 6I media, which includes all 6C/Colon 1B media plus 10 ng/mL human FGF-10 (PeproTech, cat. 100-26), 1 ng/mL human FGF-2 (PeproTech, cat. 100-18B), 1 µM prostaglandin E2 (Tocris Bioscience, cat. 2296), […] hydrocortisone (Sigma-Aldrich, cat. H4001), and […] bovine insulin (Sigma-Aldrich, cat. I6634). The K86415-001-R-J1-PDC line was cultured in 6D media, which includes all 6C/Colon 1B media components minus the L-WRN conditioned media. The 485176-168-R4-J1-PDC was cultured in PANC media, which includes all 6C/Colon 1B media plus 100 ng/mL human FGF-10 (PeproTech, cat. 100-26), 500 nM SB-431542 (Selleckchem, cat. S1067), and 10 nM gastrin (Tocris Bioscience, cat. 3006). […]

[1] = second compound 0.0316 µM, first compound 0.0316 µM
[2] = second compound 0.0316 µM, first compound 0.1 µM
[3] = second compound 0.1 µM, first compound 0.0316 µM
[4] = second compound 0.1 µM, first compound 0.1 µM
[5] = second compound 0.316 µM, first compound 0.0316 µM
[6] = second compound 0.316 µM, first compound 0.1 µM
[7] = second compound 1 µM, first compound 0.0316 µM
[8] = second compound 1 µM, first compound 0.1 µM
[9] = second compound 3.16 µM, first compound 0.0316 µM
[10] = second compound 3.16 µM, first compound 0.1 µM
[11] = second compound 10 µM, first compound 0.0316 µM
[12] = second compound 10 µM, first compound 0.1 µM

Work on CC(C)n1nc(-c2ccc3oc(N)nc3c2)c2c(N)ncnc21 + C#Cc1c(F)ccc2cc(O)cc(-c3ncc4c(N5CC6CCC(C5)N6)nc(OCC56CCCN5CC(F)C6)nc4c3F)c12 yielded an IC50 (second compound 0.0316 µM) of 53.9 nM, an IC50 (second compound 0.1 µM) of 43.2 nM and an IC50 (second compound 0.316 µM) of 22.2 nM. For the same molecule, the IC50 (second compound 1 µM) was 14.8 nM, the IC50 (second compound 3.16 µM) was 2.86 nM and the IC50 (second compound 10 µM) was < 0.316 nM. It also gave a viability, T/C (second compound 0.0316 µM, first compound 0.000316 µM) of 105%, a viability, T/C (second compound 0.0316 µM, first compound 0.001 µM) of 114% and a viability, T/C (second compound 0.0316 µM, first compound 0.00316 µM) of 89.6%. For the same molecule, the viability, T/C (second compound 0.0316 µM, first compound 0.01 µM) was 73.9%, the viability, T/C [1] was 51.4% and the viability, T/C [2] was 47.1%. The viability, T/C (second compound 0.1 µM, first compound 0.000316 µM) was 108%, the viability, T/C (second compound 0.1 µM, first compound 0.001 µM) was 113% and the viability, T/C (second compound 0.1 µM, first compound 0.00316 µM) was 84.7%. It also gave a viability, T/C (second compound 0.1 µM, first compound 0.01 µM) of 71.4%, a viability, T/C [3] of 53.2% and a viability, T/C [4] of 42.8%. The viability, T/C (second compound 0.316 µM, first compound 0.000316 µM) was 104%, the viability, T/C (second compound 0.316 µM, first compound 0.001 µM) was 106% and the viability, T/C (second compound 0.316 µM, first compound 0.00316 µM) was 83.7%. It also gave a viability, T/C (second compound 0.316 µM, first compound 0.01 µM) of 61.6%, a viability, T/C [5] of 46.1% and a viability, T/C [6] of 39.4%. The viability, T/C (second compound 1 µM, first compound 0.000316 µM) was 83.6%, the viability, T/C (second compound 1 µM, first compound 0.001 µM) was 93.1% and the viability, T/C (second compound 1 µM, first compound 0.00316 µM) was 72.8%. For the same molecule, the viability, T/C (second compound 1 µM, first compound 0.01 µM) was 56.4%, the viability, T/C [7] was 39.6% and the viability, T/C [8] was 32.3%. The viability, T/C (second compound 3.16 µM, first compound 0.000316 µM) was 56.4%, the viability, T/C (second compound 3.16 µM, first compound 0.001 µM) was 60.4% and the viability, T/C (second compound 3.16 µM, first compound 0.00316 µM) was 48.4%. The viability, T/C (second compound 3.16 µM, first compound 0.01 µM) was 38.3%, the viability, T/C [9] was 36.8% and the viability, T/C [10] was 22.9%. For the same molecule, the viability, T/C (second compound 10 µM, first compound 0.000316 µM) was 38.8%, the viability, T/C (second compound 10 µM, first compound 0.001 µM) was 38.6% and the viability, T/C (second compound 10 µM, first compound 0.00316 µM) was 28.8%. For the same molecule, the viability, T/C (second compound 10 µM, first compound 0.01 µM) was 26.9%, the viability, T/C [11] was 24.1% and the viability, T/C [12] was 17%.

With C[C@@H](NC(=O)c1ncnc(N)c1Cl)c1ncc(C(=O)Nc2cc(C(F)(F)F)c(Cl)cn2)s1 + C#Cc1c(F)ccc2cc(O)cc(-c3ncc4c(N5CC6CCC(C5)N6)nc(OCC56CCCN5CC(F)C6)nc4c3F)c12 the IC50 (second compound 0.0316 µM) was > 10000 nM, the IC50 (second compound 0.1 µM) was > 10000 nM and the IC50 (second compound 0.316 µM) was > 10000 nM. For the same molecule, the IC50 (second compound 1 µM) was > 10000 nM, the IC50 (second compound 3.16 µM) was > 10000 nM and the IC50 (second compound 10 µM) was < 31.6 nM. It also gave a viability, T/C [1] of 110%, a viability, T/C [2] of 112% and a viability, T/C (second compound 0.0316 µM, first compound 0.316 µM) of 98.9%. For the same molecule, the viability, T/C (second compound 0.0316 µM, first compound 1 µM) was 99.9%, the viability, T/C (second compound 0.0316 µM, first compound 3.16 µM) was 92.3% and the viability, T/C (second compound 0.0316 µM, first compound 10 µM) was 66.5%. For the same molecule, the viability, T/C [3] was 103%, the viability, T/C [4] was 110% and the viability, T/C (second compound 0.1 µM, first compound 0.316 µM) was 105%. It also gave a viability, T/C (second compound 0.1 µM, first compound 1 µM) of 99.5%, a viability, T/C (second compound 0.1 µM, first compound 3.16 µM) of 91.8% and a viability, T/C (second compound 0.1 µM, first compound 10 µM) of 66.2%. It also gave a viability, T/C [5] of 104%, a viability, T/C [6] of 110% and a viability, T/C (second compound 0.316 µM, first compound 0.316 µM) of 106%. The viability, T/C (second compound 0.316 µM, first compound 1 µM) was 99.4%, the viability, T/C (second compound 0.316 µM, first compound 3.16 µM) was 85.6% and the viability, T/C (second compound 0.316 µM, first compound 10 µM) was 74.4%. It also gave a viability, T/C [7] of 90.3%, a viability, T/C [8] of 96.2% and a viability, T/C (second compound 1 µM, first compound 0.316 µM) of 93.1%. The viability, T/C (second compound 1 µM, first compound 1 µM) was 86.1%, the viability, T/C (second compound 1 µM, first compound 3.16 µM) was 83.3% and the viability, T/C (second compound 1 µM, first compound 10 µM) was 60.7%. For the same molecule, the viability, T/C [9] was 67.2%, the viability, T/C [10] was 69.3% and the viability, T/C (second compound 3.16 µM, first compound 0.316 µM) was 60.8%. It also gave a viability, T/C (second compound 3.16 µM, first compound 1 µM) of 56.9%, a viability, T/C (second compound 3.16 µM, first compound 3.16 µM) of 53.6% and a viability, T/C (second compound 3.16 µM, first compound 10 µM) of 52.5%. For the same molecule, the viability, T/C [11] was 38.7%, the viability, T/C [12] was 49.5% and the viability, T/C (second compound 10 µM, first compound 0.316 µM) was 46.3%. For the same molecule, the viability, T/C (second compound 10 µM, first compound 1 µM) was 41.1%, the viability, T/C (second compound 10 µM, first compound 3.16 µM) was 48.1% and the viability, T/C (second compound 10 µM, first compound 10 µM) was 38.3%.
